Test results reported in patent US11377425B1, “Small molecule modulators of IL-17” (LEO Pharma A/S, priority 2018, dated 2022).

Target: T1, human IL-17AA (Homo sapiens, UniProt Q16552)
T1 construct: host or cells: HEK (human embryonic kidney) cells
T1 sequence (Q16552 24-155): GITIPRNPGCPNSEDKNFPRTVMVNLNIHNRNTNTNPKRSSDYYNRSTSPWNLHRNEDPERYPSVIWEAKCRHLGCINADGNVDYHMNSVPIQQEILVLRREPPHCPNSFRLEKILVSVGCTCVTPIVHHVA
Assay: IL-8 release assay in human epithelial keratinocytes adult (HEKa)
Type: cell-based
Settings: HEKa cells, 3 ng/mL HEK-human IL-17AA + 10 ng/mL human TNFalpha; read-out: Rel EC50 IL-8 release assay
How it was run: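 IL-8 release, quantified by HTRF and normalized to controls, reports IL-17 signaling in HEKa cells treated with compound plus final 3 ng/mL IL-17AA (HEK-derived) and 10 ng/mL TNF-alpha for 68-72 h; TNF-alpha-only wells set 100% inhibition. Four-parameter logistic fits (r^2>0.9) give relative IC50 and Emax; PrestoBlue flags cytotoxicity.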

EC50, < 100 nM:
CCc1n[nH]c(CC)c1-c1ccc(NC(=O)[C@@H](NC(=O)c2ccnn2CCCO)C(C2CC2)C2CC2)cc1 [Example 393, N-[(1S)-1-(dicyclopropylmethyl)-2-[4-(3,5-diethyl-1H-pyrazol-4-yl)anilino]-2-oxo-ethyl]-2-(3-hydroxypropyl)pyrazole-3-carboxamide]
Cc1n[nH]c(C)c1-c1ccc(NC(=O)[C@@H](NC(=O)c2ccnn2C(C)C)C2CCC(F)(F)CC2)cc1 [Example 12, N-[(1S)-1-(4,4-difluorocyclohexyl)-2-[4-(3,5-dimethyl-1H-pyrazol-4-yl)anilino]-2-oxo-ethyl]-2-isopropyl-pyrazole-3-carboxamide]
Cc1n[nH]c(C)c1-c1ccc(NC(=O)[C@@H](NC(=O)c2ccnn2C)[C@H]2CCc3ccc(Br)cc32)cc1 [Example 5, N-[(1S)-1-[(1S)-6-bromoindan-1-yl]-2[4-(3,5-dimethyl-1H-pyrazol-4-yl)anilino]-2-oxo-ethyl]-2-methyl-pyrazole-3-carboxamide]
CCCn1nccc1C(=O)N[C@H](C(=O)Nc1ccc(-c2c(C)n[nH]c2C)cc1)C(C1CC1)C1CC1 [Example 133, N-[(1S)-1-(dicyclopropylmethyl)-2-[4-(3,5-dimethyl-1H-pyrazol-4-yl)anilino]-2-oxo-ethyl]-2-propyl-pyrazole-3-carboxamide]
COCCn1nccc1C(=O)N[C@H](C(=O)Nc1ccc(-c2c(C)n[nH]c2C)cc1)C(C1CC1)C1CC1 [Example 206, N-[(1S)-1-(dicyclopropylmethyl)-2-[4-(3,5-dimethyl-1H-pyrazol-4-yl)anilino]-2-oxo-ethyl]-2-(2-methoxyethyl)pyrazole-3-carboxamide]
Cc1n[nH]c(C)c1-c1ccc(NC(=O)[C@@H](NC(=O)c2ccnn2C(C)C)C2CCCCC2)cc1 [Example 10, N-[(1S)-1-cyclohexyl-2-[4-(3,5-dimethyl-1H-pyrazol-4-yl)anilino]-2-oxo-ethyl]-2-isopropyl-pyrazole-3-carboxamide]
Cc1n[nH]c(C)c1-c1ccc(NC(=O)[C@@H](NC(=O)c2conc2C(C)C)C2CCCCC2)cc1 [Example 277, N-[(1S)-1-cyclohexyl-2-[4-(3,5-dimethyl-1H-pyrazol-4-yl)anilino]-2-oxo-ethyl]-3-isopropyl-isoxazole-4-carboxamide]
Cc1n[nH]c(C)c1-c1ccc(NC(=O)[C@@H](NC(=O)c2ccnn2CCC(F)F)C(C2CC2)C2CC2)cc1 [Example 215, N-[(1S)-1-(dicyclopropylmethyl)-2-[4-(3,5-dimethyl-1H-pyrazol-4-yl)anilino]-2-oxo-ethyl]-2-(3,3-difluoropropyl)pyrazole-3-carboxamide]
CCn1nccc1C(=O)N[C@H](C(=O)Nc1ccc(-c2c(C3CC3)n[nH]c2C)cc1)C(C1CC1)C1CC1 [Example 392, N-[(1S)-2,2-dicyclopropyl-1-[[4-(3-cyclopropyl-5-methyl-1H-pyrazol-4-yl)phenyl]carbamoyl]ethyl]-2-ethyl-pyrazole-3-carboxamide]

EC50, 100 to 1000 nM:
Cc1n[nH]c(C)c1-c1ccc(NC(=O)[C@@H](NC(=O)c2ccnn2C)C(c2ccccc2)c2ccccc2)cc1 [Example 2, N-[(1S)-1-benzhydryl-2-[4-(3,5-dimethyl-1H-pyrazol-4-yl)anilino]-2-oxo-ethyl]-2-methyl-pyrazole-3-carboxamide]
Cc1n[nH]c(C)c1-c1ccc(NC(=O)C(NC(=O)c2ccnn2C(C)C)C(C2CC(F)(F)C2)C2CC(F)(F)C2)cc1 (centres unmarked) [Example 295, N-[1-[bis(3,3-difluorocyclobutyl)methyl]-2-[4-(3,5-dimethyl-1H-pyrazol-4-yl)anilino]-2-oxo-ethyl]-2-isopropyl-pyrazole-3-carboxamide]
Cc1n[nH]c(C)c1-c1ccc(NC(=O)[C@@H](NC(=O)c2csc3ccccc23)C2CCCCC2)cc1 [Example 74, N-[(1S)-1-cyclohexyl-2-[4-(3,5-dimethyl-1H-pyrazol-4-yl)anilino]-2-oxo-ethyl]benzothiophene-3-carboxamide]
Cn1cncc1-c1ccc(NC(=O)[C@@H](NC(=O)c2ccnn2C)[C@H]2CCc3ccccc32)cc1 [Example 377, N-[(1S)-1-[(1S)-indan-1-yl]-2-[4-(3-methylimidazol-4-yl)anilino]-2-oxo-ethyl]-2-methyl-pyrazole-3-carboxamide]
Cc1n[nH]c(C)c1-c1ccc(NC(=O)[C@@H](NC(=O)c2ccnn2[C@@H](C)CO)C(C)C2CCC2)cc1 (single isomer, unassigned) [Example 174]
CC(C)c1ncn(C)c1-c1ccc(NC(=O)[C@@H](NC(=O)c2ccnn2C(C)C)C(C2CC2)C2CC2)cc1 [Example 401, N-[(1S)-1-(dicyclopropylmethyl)-2-[4-(5-isopropyl-3-methyl-imidazol-4-yl)anilino]-2-oxo-ethyl]-2-isopropyl-pyrazole-3-carboxamide]
Cc1n[nH]c(C)c1-c1ccc(NC(=O)[C@@H](NC(=O)c2ccnn2C)[C@@H]2CCc3c(F)cc(Br)cc32)cc1 [Example 278, N-[(1S)-1-[(1R)-6-bromo-4-fluoro-indan-1-yl]-2-[4 (3,5-dimethyl-1H-pyrazol-4-yl)anilino]-2-oxo-ethyl]-2-methyl-pyrazole-3-carboxamide]
CCC(F)(F)C(=O)N[C@H](C(=O)Nc1ccc(-c2c(C)n[nH]c2C)cc1)C1CCCCC1 [Example 56, N-[(1S)-1-cyclohexyl-2-[4-(3,5-dimethyl-1H-pyrazol-4-yl)anilino]-2-oxo-ethyl]-2,2-difluoro-butanamide]

EC50, > 1000 nM:
Cn1cncc1-c1ccc(NC(=O)C(NC(=O)c2ccnn2C)C(c2cccc(Cl)c2)c2cccc(Cl)c2)cc1 (single isomer, unassigned) [Example 373B, N-(1,1-Bis(3-chlorophenyl)-3-((4-(1-methyl-1H-imidazol-5-yl)phenyl)amino)-3-oxopropan-2-yl)-1-methyl-1H-pyrazole-5-carboxamide]
Cn1cncc1-c1ccc(NC(=O)[C@@H](NC(=O)OC(C)(C)C)C2Cc3ccccc3C2)cc1 [Example 99, tert-butyl N-[(1S)-1-indan-2-yl-2-[4-(3-methylimidazol-4-yl)anilino]-2-oxo-ethyl]carbamate]
CC(C)n1nccc1C(=O)N[C@H](C(=O)Nc1ccc(-c2ncn(C)c2C(F)(F)F)cc1)C1CCCCC1 [Example 371B, N-[(1S)-1-cyclohexyl-2-[4-[1-methyl-5-(trifluoromethyl)imidazol-4-yl]anilino]-2-oxo-ethyl]-2-isopropyl-pyrazole-3-carboxamide]
Cn1cncc1-c1ccc(NC(=O)[C@@H](NC(=O)OC(C)(C)C)C(C2CCCCC2)C2CCCC2)cc1 (single isomer, unassigned) [Example 313]
Cn1cnnc1-c1ccc(NC(=O)[C@@H](NC(=O)C2(F)CC2)C(c2ccccc2)c2ccccc2)cc1 [Example 353, N-[(1S)-1-benzhydryl-2-[4-(4-methyl-1,2,4-triazol-3-yl)anilino]-2-oxo-ethyl]-1-fluoro-cyclopropanecarboxamide]
Cc1ncn(C)c1-c1ccc(NC(=O)C(NC(=O)OC(C)(C)C)C2CCC(F)(F)CC2)cc1 (single isomer, unassigned) [Example 86, tert-butyl N-[1-(4,4-difluorocyclohexyl)-2-[4-(3,5-dimethylimidazol-4-yl)anilino]-2-oxo-ethyl]carbamate]
